Data as given in ChEMBL document CHEMBL5131510, “Proteostasis Regulators in Cystic Fibrosis: Current Development and Future Perspectives” (J Med Chem, 2022).
Where a SMILES comes first, the peptide text is derived from it. Bridges are numbered along the chain shown (N, C = ends).

Experiments:
Mus musculus = test: In vivo rescue of F508del-CFTR activity in cystic fibrosis mouse model assessed as measuring salivary secretion at 5 mg/kg/day, ip qd for 2 days relative to control; format: functional; settings: time 2 day
[1] = Ex vivo inhibition of PARP-1 in ileum of cystic fibrosis mouse model assessed as rescue of F508del-CFTR activity at 1 nM treated for 4 hrs in presence of forskolin/genistein relative to control; format: functional; design: scale not given: the % may be the effect or the level left
[2] = target: T1, Golgi-associated PDZ and coiled-coil motif-containing protein (Homo sapiens, UniProt Q9HD26); test: Inhibition of CAL PDZ domain (unknown origin) assessed as inhibition constant by fluorescence polarization competition assay
[3] = tested on: Cystic fibrosis transmembrane conductance regulator (Homo sapiens), P13569 [F508del]; test: Modulation of F508del-CFTR mutant transfected in human HEK293 cells assessed as fold increase in level of ER glycosylated form of F508del-CFTR at 30 uM treated for 24 hrs by immunoblot assay; format: cell-based; settings: filed as modulator
[4] = target: T1, Golgi-associated PDZ and coiled-coil motif-containing protein; test: Binding affinity to CAL PDZ domain (unknown origin) assessed as dissociation constant in presence of tris(carboxylethyl)phosphine by fluorescence anisotropy analysis
[5] = target: T2, Protein mono-ADP-ribosyltransferase PARP3 (Homo sapiens, UniProt Q9Y6F1); test: Inhibition of recombinant human PARP3 expressed in baculovirus expression system using anchored-histone proteins as substrate incubated for 1 hr by chemiluminescence assay
T2 sequence (Q9Y6F1 whole entry): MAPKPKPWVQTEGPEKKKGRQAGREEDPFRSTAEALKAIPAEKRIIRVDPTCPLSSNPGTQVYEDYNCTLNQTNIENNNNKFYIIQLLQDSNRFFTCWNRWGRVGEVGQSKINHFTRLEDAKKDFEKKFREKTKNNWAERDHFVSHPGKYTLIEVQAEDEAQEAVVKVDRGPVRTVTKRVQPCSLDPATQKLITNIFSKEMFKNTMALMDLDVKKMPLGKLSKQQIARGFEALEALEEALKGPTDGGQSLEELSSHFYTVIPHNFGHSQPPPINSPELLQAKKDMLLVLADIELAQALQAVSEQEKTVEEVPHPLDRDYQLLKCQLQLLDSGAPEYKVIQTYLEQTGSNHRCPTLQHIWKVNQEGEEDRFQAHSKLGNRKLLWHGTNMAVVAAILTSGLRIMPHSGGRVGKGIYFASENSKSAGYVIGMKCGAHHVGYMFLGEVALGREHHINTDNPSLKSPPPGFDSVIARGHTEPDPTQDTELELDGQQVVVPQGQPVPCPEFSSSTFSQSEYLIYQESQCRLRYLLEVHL

[6] = target: T3, Protein mono-ADP-ribosyltransferase PARP16 (Homo sapiens, UniProt Q8N5Y8); test: Inhibition of PARP16 (unknown origin) using 6xHis-tagged IRE-1 as substrate incubated for 1 hr by chemiluminescence assay
T3 sequence (Q8N5Y8 whole entry): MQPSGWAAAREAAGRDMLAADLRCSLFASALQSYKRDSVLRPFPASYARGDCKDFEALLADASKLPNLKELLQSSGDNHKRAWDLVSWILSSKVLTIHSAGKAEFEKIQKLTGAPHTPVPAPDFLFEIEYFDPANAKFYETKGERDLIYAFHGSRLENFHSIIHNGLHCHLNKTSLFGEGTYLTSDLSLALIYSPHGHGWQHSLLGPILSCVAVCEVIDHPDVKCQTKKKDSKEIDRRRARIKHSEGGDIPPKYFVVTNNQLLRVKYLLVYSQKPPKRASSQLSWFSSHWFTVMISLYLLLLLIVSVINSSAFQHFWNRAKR

[7] = Inhibition of Hsp40-stimulated yeast Hsp70 ATPase activity assessed as inhibition constant by single-turnover assay; design: species or system Saccharomyces cerevisiae
[8] = Rescue of F508del-CFTR residual channel activity in hamster BHK cells assessed as fold increase in forskolin/genistein-induced iodide efflux measured every minute for 10 mins
Homo sapiens = organism: Homo sapiens; test: Inhibition of Hsp70 ATPase activity (unknown origin) at 200 uM incubated for 3 hrs in presence of ATP by malachite green assay relative to control
[9] = tested on: Cystic fibrosis transmembrane conductance regulator (Homo sapiens), P13569 [F508del]; test: Modulation of F508del-CFTR mutant in HBE cells assessed as fold increase in CFTR mRNA levels by […]; format: cell-based; settings: filed as modulator
[10] = tested on: Cystic fibrosis transmembrane conductance regulator (Homo sapiens), P13569 [F508del]; test: Stabilization of F508del-CFTR in human CFBE41o- cells assessed as OUTB1 occupancy by Proteomic analysis relative to control; format: cell-based

Cystic fibrosis transmembrane conductance regulator (Homo sapiens), P13569 [F508del], sequence (P13569 as listed by the source): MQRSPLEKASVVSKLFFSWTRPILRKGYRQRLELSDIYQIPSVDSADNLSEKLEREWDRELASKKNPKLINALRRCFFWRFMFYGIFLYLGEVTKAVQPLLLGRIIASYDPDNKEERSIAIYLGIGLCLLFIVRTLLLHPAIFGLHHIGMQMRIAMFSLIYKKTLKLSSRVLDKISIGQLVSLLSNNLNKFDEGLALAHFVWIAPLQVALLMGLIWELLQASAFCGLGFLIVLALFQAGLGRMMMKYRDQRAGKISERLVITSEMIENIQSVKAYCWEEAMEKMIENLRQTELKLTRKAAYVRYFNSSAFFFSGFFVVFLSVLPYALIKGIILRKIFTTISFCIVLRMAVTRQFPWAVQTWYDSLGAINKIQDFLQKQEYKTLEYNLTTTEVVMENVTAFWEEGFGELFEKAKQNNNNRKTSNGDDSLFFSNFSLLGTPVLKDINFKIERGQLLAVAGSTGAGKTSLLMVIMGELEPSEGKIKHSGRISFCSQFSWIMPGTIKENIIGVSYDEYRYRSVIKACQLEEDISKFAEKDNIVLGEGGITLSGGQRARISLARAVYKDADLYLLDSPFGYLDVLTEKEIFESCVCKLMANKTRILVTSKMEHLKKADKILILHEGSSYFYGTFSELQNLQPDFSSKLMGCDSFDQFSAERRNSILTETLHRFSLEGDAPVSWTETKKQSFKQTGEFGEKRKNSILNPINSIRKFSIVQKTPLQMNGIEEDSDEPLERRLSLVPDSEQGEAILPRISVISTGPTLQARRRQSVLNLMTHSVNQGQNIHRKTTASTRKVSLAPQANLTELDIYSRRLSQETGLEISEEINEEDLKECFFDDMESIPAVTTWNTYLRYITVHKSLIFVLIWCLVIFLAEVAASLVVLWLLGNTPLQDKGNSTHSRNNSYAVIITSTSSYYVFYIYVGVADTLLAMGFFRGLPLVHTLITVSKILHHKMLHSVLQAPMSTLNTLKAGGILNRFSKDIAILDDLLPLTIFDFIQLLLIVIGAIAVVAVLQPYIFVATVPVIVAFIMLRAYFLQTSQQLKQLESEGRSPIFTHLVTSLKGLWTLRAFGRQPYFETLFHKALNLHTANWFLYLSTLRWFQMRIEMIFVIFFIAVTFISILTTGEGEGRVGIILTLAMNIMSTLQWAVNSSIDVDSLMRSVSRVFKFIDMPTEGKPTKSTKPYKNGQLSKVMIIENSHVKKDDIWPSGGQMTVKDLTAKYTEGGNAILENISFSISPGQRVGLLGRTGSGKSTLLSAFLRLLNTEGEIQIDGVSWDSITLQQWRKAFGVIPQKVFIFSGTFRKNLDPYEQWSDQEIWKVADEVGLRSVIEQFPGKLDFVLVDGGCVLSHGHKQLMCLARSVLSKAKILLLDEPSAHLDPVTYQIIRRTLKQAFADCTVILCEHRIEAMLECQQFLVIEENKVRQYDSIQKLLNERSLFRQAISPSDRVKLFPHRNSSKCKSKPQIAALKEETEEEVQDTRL

Structure (SMILES): C[C@]1(c2nc3c(C(N)=O)cccc3[nH]2)CCCN1 [VELIPARIB]
- Activity (Mus musculus): 7.8%
- Activity [1]: 7%

Structure (SMILES): CC(=O)N[C@@H](Cc1c[nH]c2ccccc12)C(=O)N[C@@H](CCC(N)=O)C(=O)N[C@H](C(=O)N[C@H](C(=O)N[C@@H](CCCNC(=N)N)C(=O)N[C@H](C(=O)O)C(C)C)[C@@H](C)O)C(C)C (Ac-WQVTRV-OH)
- Ki [2]: 2.3 µM

Structure (SMILES): CC1=C(C(=O)OCc2ccccc2)C(c2ccc(Cl)cc2Cl)NC(=O)N1CCCC(=O)O (stereo not given)
- fold change (FC) [3]: 2.1

Structure (SMILES): CC(=O)N[C@H]1CSSC[C@@H](C(=O)N[C@H](C(=O)N[C@@H](CCCNC(=N)N)C(=O)N[C@H](C(=O)O)C(C)C)[C@@H](C)O)NC(=O)[C@H](CCC(N)=O)NC(=O)[C@H](Cc2c[nH]c3ccccc23)NC(=O)[C@H](Cc2ccccc2)NC(=O)[C@H](CCCNC(=N)N)NC(=O)[C@H](CCCNC(=N)N)NC(=O)[C@H](CCCNC(=N)N)NC(=O)[C@H](CCCNC(=N)N)NC1=O (Ac-CRRRRFWQCTRV-OH; disulfide 1-9)
- Kd [4]: 0.49 µM

Structure (SMILES): O=C1NC[C@@H](c2ccccc2)[C@@H](O)c2ccccc21
- IC50 [5]: 3.1 µM
- IC50 [6]: 296 µM

Structure (SMILES): CCCCCCCCCCCCC/C=C/[C@@H](O)[C@H](COC1O[C@H](CO)[C@H](O)[C@H](OS(=O)(=O)O)[C@H]1O)NC(=O)CC12CC3CC(CC(C3)C1)C2 (stereo not given in full)
- Ki [7]: 10 µM

Structure (SMILES): CCN(CC)c1ccc(N/N=C2\C(=O)C=Cc3ccccc32)cc1
- fold change (FC) [8]: 2.5

Structure (SMILES): N#CCc1nnc(-c2ccccn2)[nH]1
- fold change (FC) [8]: 2.5

Structure (SMILES): COc1ccc(-c2nc(-c3cc(C(F)(F)F)cc(C(F)(F)F)c3)n(Cc3ccc(C(N)=O)cc3)c2-c2ccc(OC)cc2)cc1
- inhibition (Homo sapiens): 55%

Structure (SMILES): O=C1NC[C@@H](c2ccccn2)[C@@H](O)c2cc(Cl)c(Cl)cc21
- IC50 [5]: 74.1 µM
- IC50 [6]: 0.362 µM

Structure (SMILES): O=C(NCCCn1nncc1CO)c1cc(-c2ccccc2)on1
- fold change (FC) [9]: 1.5

Structure (SMILES): C=CC(=O)N1CCN(c2ccc(CCC(=O)NCCCCCNC(=O)c3cccc(-c4nc(NC(=O)C5(c6ccc7c(c6)OC(F)(F)O7)CC5)ccc4C)c3)o2)C(=O)C1
- Activity [10]: 60%
